According to US20100227921A1, “AMINO ACID AND PEPTIDE CARBAMATE PRODRUGS OF […] USES THEREOF” (SHIRE LLC, priority 2009, published 2010):
Several values for one entry are separate records, joined by “and”; a condition that tells them apart may be missing. Equal entries are not always repeated. Where two headings read alike, the source gives them in different places. Marks after values point to notes of the source that are not given here.

Experiments:
[1] = Comparative bioavailability after oral administration to rats (plasma LC-MS-MS); type: in vivo
Description: Test substances, i.e., tapentadol or tapentadol valine carbamate were administered by oral gavage to groups of male Sprague Dawley rats.
(§1) Blood samples were taken at various times after administration and submitted to analysis for the parent drug and pro-drug using a validated LC-MS-MS assay. Pharmacokinetic parameters derived from the plasma analytical data were determined using Win Nonlin.

[2] = Comparative in vivo bioavailability study in the dog (oral gavage, plasma LC-MS-MS)
Description: Test substances (i.e., tapentadol (1 mg/kg) and tapentadol valine carbamate (0.8 mg tapentadol base equivalents/kg)) were administered by oral gavage to a group of five dogs (dog nos. 1, 2, 3, 4 and 5) in a two-way crossover design. The characteristics of the test animals are set out in Table 3.
as §1

[3] = Comparative bioavailability after oral or intravenous administration to monkeys (plasma LC-MS-MS); type: in vivo, cynomolgus monkey; conditions: male monkey, i.v. tapentadol valine carbamate 0.5 mg tapentadol free base equiv/kg, individual animals 1-5
Description: Test substances i.e., tapentadol and tapentadol valine carbamate were administered (either intravenously or orally) to a group of five male cynomolgus monkeys in a three way crossover design. The oral doses were given at 1 mg tapentadol base equivalents/kg while the intravenous dose was 0.5 mg/kg
Blood samples were taken at various times after administration and submitted to analysis for the parent drug and tapentadol valine carbamate using a validated LC-MS-MS assay. Pharmacokinetic parameters derived from the plasma analytical data were determined using Win Nonlin.

[4] = male rat, oral tapentadol valine carbamate 10 mg tapentadol free base equiv/kg, individual animals 6-10
[5] = oral tapentadol valine carbamate 0.8 mg tapentadol base equiv/kg, individual dogs 1-5

Work on `CC[C@H](c1cccc(OC(=O)N[C@H](C(=O)O)C(C)C)c1)[C@H](C)CN(C)C` (racemic) [Tapentadol valine carbamate, 2-[3-(3-Dimethylamino-1-ethyl-2-methyl-propyl)-phenoxycarbonylamino]-3-methyl-butyric acid] yielded a concentration at 0.5 h ([1]; Sprague Dawley, plasma, male rat, oral tapentadol valine carbamate 10 mg tapentadol free base equiv/kg, 0.5 h, individual animals 6-10, read-out: Plasma concentration of tapentadol valine carbamate) of 64.5 ng/mL, a concentration at 1 h ([1]; Sprague Dawley, plasma, male rat, oral tapentadol valine carbamate 10 mg tapentadol free base equiv/kg, 1 h, individual animals 6-10, read-out: Plasma concentration of tapentadol valine carbamate) of 72.4 ng/mL and a concentration at 2 h ([1]; Sprague Dawley, plasma, male rat, oral tapentadol valine carbamate 10 mg tapentadol free base equiv/kg, 2 h, individual animals 6-10, read-out: Plasma concentration of tapentadol valine carbamate) of 85.8 ng/mL. The concentration at 4 h ([1]; Sprague Dawley, plasma, male rat, oral tapentadol valine carbamate 10 mg tapentadol free base equiv/kg, 4 h, individual animals 6-10, read-out: Plasma concentration of tapentadol valine carbamate) was 42.5 ng/mL, the concentration at 6 h ([1]; Sprague Dawley, plasma, male rat, oral tapentadol valine carbamate 10 mg tapentadol free base equiv/kg, 6 h, individual animals 6-10, read-out: Plasma concentration of tapentadol valine carbamate) was 30.5 ng/mL and the “Plasma concentration of tapentadol valine carbamate” value (from here on “Plasma concentration”) ([1]; male rat, oral tapentadol valine carbamate 10 mg tapentadol free base equiv/kg, 0.5 h, individual animals 6-10) was 79.5 ng/mL and 86.5 ng/mL and 77.5 ng/mL and 111 ng/mL. The “Plasma concentration” value ([1]; male rat, oral tapentadol valine carbamate 10 mg tapentadol free base equiv/kg, 1 h, individual animals 6-10) was 73.8 ng/mL and 88.9 ng/mL and 83.1 ng/mL and 115 ng/mL, the “Plasma concentration” value ([1]; male rat, oral tapentadol valine carbamate 10 mg tapentadol free base equiv/kg, 2 h, individual animals 6-10) was 57.3 ng/mL and 106 ng/mL and 76.4 ng/mL and 86.6 ng/mL and the “Plasma concentration” value ([1]; male rat, oral tapentadol valine carbamate 10 mg tapentadol free base equiv/kg, 3 h, individual animals 6-10) was 76.7 ng/mL and 71.6 ng/mL and 74.8 ng/mL and 34.5 ng/mL and 86.4 ng/mL. The “Plasma concentration” value ([1]; male rat, oral tapentadol valine carbamate 10 mg tapentadol free base equiv/kg, 4 h, individual animals 6-10) was 46.7 ng/mL and 47.0 ng/mL and 27.5 ng/mL and 51.6 ng/mL, the “Plasma concentration” value ([1]; male rat, oral tapentadol valine carbamate 10 mg tapentadol free base equiv/kg, 6 h, individual animals 6-10) was 19.9 ng/mL and 38.9 ng/mL and 22.7 ng/mL and 31.3 ng/mL and the “Plasma concentration” value ([1]; male rat, oral tapentadol valine carbamate 10 mg tapentadol free base equiv/kg, 8 h, individual animals 6-10) was 32.7 ng/mL and 14.6 ng/mL and 26.5 ng/mL and 21.3 ng/mL and 25.4 ng/mL. The “Plasma concentration” value ([1]; male rat, oral tapentadol valine carbamate 10 mg tapentadol free base equiv/kg, 12 h, individual animals 6-10) was 9.49 ng/mL and 27.0 ng/mL and 11.4 ng/mL and 5.81 ng/mL and 14.5 ng/mL, the “Plasma concentration” value ([1]; male rat, oral tapentadol valine carbamate 10 mg tapentadol free base equiv/kg, 24 h, individual animals 6-10) was 2.00 ng/mL and 0.915 ng/mL and 0.801 ng/mL and 0.656 ng/mL and 0.548 ng/mL and the “AUCt of tapentadol valine carbamate” value [1, 4] was 599 ng·h/mL and 615 ng·h/mL and 413 ng·h/mL and 650 ng·h/mL. For the same compound, the “Cmax of tapentadol valine carbamate” value [1, 4] was 79.5 ng/mL and 106 ng/mL and 83.1 ng/mL and 115 ng/mL, the “T>50%Cmax of tapentadol valine carbamate” value [1, 4] was 2.5 h (2×) and 3.5 h (2×) and 1.5 h and the “Tmax of tapentadol valine carbamate” value [1, 4] was 2 h. The “t½ of tapentadol valine carbamate” value [1, 4] was 3.83 h and 3.16 h and 3.60 h and 3.06 h, the “T>50%Cmax of tapentadol valine carbamate” value ([1]; male rat, oral tapentadol valine carbamate 10 mg tapentadol free base equiv/kg, median) was 2.5^a h and the “Peak plasma levels of tapentadol compared with those after administration of the parent drug” value ([1]; male rat, oral, 10 mg tapentadol free base equiv/kg) was “somewhat lower”. It also gave a concentration at 0.5 h ([1]; male, Sprague Dawley, rat, plasma, po, 10 mg tapentadol free base equiv/kg, oral tapentadol valine carbamate 10 mg tapentadol free base equiv/kg, 0.5 h, mean, read-out: Plasma concentration of tapentadol valine carbamate) of 83.8 ng/mL, a concentration at 1 h ([1]; male, Sprague Dawley, rat, plasma, po, 10 mg tapentadol free base equiv/kg, oral tapentadol valine carbamate 10 mg tapentadol free base equiv/kg, 1 h, mean, read-out: Plasma concentration of tapentadol valine carbamate) of 86.6 ng/mL and a concentration at 2 h ([1]; male, Sprague Dawley, rat, plasma, po, 10 mg tapentadol free base equiv/kg, oral tapentadol valine carbamate 10 mg tapentadol free base equiv/kg, 2 h, mean, read-out: Plasma concentration of tapentadol valine carbamate) of 82.4 ng/mL. It also gave a concentration at 3 h ([1]; male, Sprague Dawley, rat, plasma, po, 10 mg tapentadol free base equiv/kg, oral tapentadol valine carbamate 10 mg tapentadol free base equiv/kg, 3 h, mean, read-out: Plasma concentration of tapentadol valine carbamate) of 68.8 ng/mL, a concentration at 4 h ([1]; male, Sprague Dawley, rat, plasma, po, 10 mg tapentadol free base equiv/kg, oral tapentadol valine carbamate 10 mg tapentadol free base equiv/kg, 4 h, mean, read-out: Plasma concentration of tapentadol valine carbamate) of 43.1 ng/mL and a concentration at 6 h ([1]; male, Sprague Dawley, rat, plasma, po, 10 mg tapentadol free base equiv/kg, oral tapentadol valine carbamate 10 mg tapentadol free base equiv/kg, 6 h, mean, read-out: Plasma concentration of tapentadol valine carbamate) of 28.7 ng/mL. For the same compound, the concentration at 8 h ([1]; male, Sprague Dawley, rat, plasma, po, 10 mg tapentadol free base equiv/kg, oral tapentadol valine carbamate 10 mg tapentadol free base equiv/kg, 8 h, mean, read-out: Plasma concentration of tapentadol valine carbamate) was 24.1 ng/mL, the concentration at 12 h ([1]; male, Sprague Dawley, rat, plasma, po, 10 mg tapentadol free base equiv/kg, oral tapentadol valine carbamate 10 mg tapentadol free base equiv/kg, 12 h, mean, read-out: Plasma concentration of tapentadol valine carbamate) was 13.6 ng/mL and the concentration at 24 h ([1]; male, Sprague Dawley, rat, plasma, po, 10 mg tapentadol free base equiv/kg, oral tapentadol valine carbamate 10 mg tapentadol free base equiv/kg, 24 h, mean) was 0.984 ng/mL. It also gave a half-life ([1]; male, Sprague Dawley, rat, plasma, po, 10 mg tapentadol free base equiv/kg, oral tapentadol valine carbamate 10 mg tapentadol free base equiv/kg, calculated as ln2/mean k, read-out: t½ of tapentadol valine carbamate (converted)) of 3.54 h, an AUC(0-t) ([1]; male, Sprague Dawley, rat, plasma, po, 10 mg tapentadol free base equiv/kg, oral tapentadol valine carbamate 10 mg tapentadol free base equiv/kg, individual animals 6-10, read-out: AUCt of tapentadol valine carbamate) of 560 ng·h/mL and a Cmax ([1]; male, Sprague Dawley, rat, plasma, po, 10 mg tapentadol free base equiv/kg, oral tapentadol valine carbamate 10 mg tapentadol free base equiv/kg, individual animals 6-10, read-out: Cmax of tapentadol valine carbamate) of 85.8 ng/mL. For the same compound, the half-life ([1]; male, Sprague Dawley, rat, plasma, po, 10 mg tapentadol free base equiv/kg, oral tapentadol valine carbamate 10 mg tapentadol free base equiv/kg, individual animals 6-10, read-out: t½ of tapentadol valine carbamate (converted)) was 4.08 h, the AUC(0-t) ([1]; male, Sprague Dawley, rat, plasma, po, 10 mg tapentadol free base equiv/kg, oral tapentadol valine carbamate 10 mg tapentadol free base equiv/kg, mean, read-out: AUCt of tapentadol valine carbamate) was 567 ng·h/mL and the Cmax ([1]; male, Sprague Dawley, rat, plasma, po, 10 mg tapentadol free base equiv/kg, oral tapentadol valine carbamate 10 mg tapentadol free base equiv/kg, mean, read-out: Cmax of tapentadol valine carbamate) was 93.9 ng/mL. For the same compound, the Tmax ([1]; male, Sprague Dawley, rat, plasma, po, 10 mg tapentadol free base equiv/kg, oral tapentadol valine carbamate 10 mg tapentadol free base equiv/kg, median, read-out: Tmax of tapentadol valine carbamate) was 1 h, the half-life ([2]; Beagle, plasma, po, 0.8 mg/kg, oral tapentadol valine carbamate 0.8 mg tapentadol base equiv/kg, calculated as ln2/mean k, read-out: t½ of tapentadol valine carbamate (converted)) was 4.8 h and the Cmax ([2]; Beagle, plasma, po, 0.8 mg/kg, oral tapentadol valine carbamate 0.8 mg tapentadol base equiv/kg, individual dogs 1-5, read-out: Cmax of tapentadol valine carbamate) was 42.8 ng/mL. For the same compound, the AUC ([2]; Beagle, plasma, po, 0.8 mg/kg, oral tapentadol valine carbamate 0.8 mg tapentadol base equiv/kg, mean of 5 dogs, read-out: AUC of tapentadol valine carbamate) was 205 ng·h/mL, the AUC(0-t) ([2]; Beagle, plasma, po, 0.8 mg/kg, oral tapentadol valine carbamate 0.8 mg tapentadol base equiv/kg, mean of 5 dogs, read-out: AUCt of tapentadol valine carbamate) was 192 ng·h/mL and the Cmax ([2]; Beagle, plasma, po, 0.8 mg/kg, oral tapentadol valine carbamate 0.8 mg tapentadol base equiv/kg, mean of 5 dogs, read-out: Cmax of tapentadol valine carbamate) was 53.4 ng/mL. For the same compound, the Tmax ([2]; Beagle, plasma, po, 0.8 mg/kg, oral tapentadol valine carbamate 0.8 mg tapentadol base equiv/kg, median of 5 dogs, read-out: Tmax of tapentadol valine carbamate) was 1 h, the “increase of duration of sustainment of active drug in the blood” value ([2]; following administration of the prodrug compared to tapentadol alone) was “two to three fold” and the “duration of drug sustainment in plasma” value ([2]; oral prodrug vs oral tapentadol) was “doubling”. The “AUC of tapentadol valine carbamate” value [2, 5] was 157 ng·h/mL and 126 ng·h/mL and 272 ng·h/mL and 221 ng·h/mL and 252 ng·h/mL, the “AUCt of tapentadol valine carbamate” value [2, 5] was 131 ng·h/mL and 119 ng·h/mL and 260 ng·h/mL and 208 ng·h/mL and 241 ng·h/mL and the “Cmax of tapentadol valine carbamate” value [2, 5] was 45.3 ng/mL and 62.3 ng/mL and 46.4 ng/mL and 70.0 ng/mL. The “T>50%Cmax of tapentadol valine carbamate” value [2, 5] was 1.5 h (4×) and 0.5 h, the “Tmax of tapentadol valine carbamate” value [2, 5] was 2 h and the “t½ of tapentadol valine carbamate” value [2, 5] was 6.7 h and 3.0 h and 5.0 h and 5.9 h and 5.3 h. For the same compound, the “T>50%Cmax of tapentadol valine carbamate” value ([2]; oral tapentadol valine carbamate 0.8 mg tapentadol base equiv/kg, median of 5 dogs) was 1.5^a h, the concentration at 0.083 h ([3]; cynomolgus monkey, plasma, iv, 0.083 h) was 790 ng/mL and the concentration at 0.25 h ([3]; cynomolgus monkey, plasma, iv, 0.25 h) was 783 ng/mL. The concentration at 1 h ([3]; cynomolgus monkey, plasma, iv, 1 h) was 222 ng/mL, the concentration at 2 h ([3]; cynomolgus monkey, plasma, iv, 2 h) was 92.3 ng/mL and the concentration at 4 h ([3]; cynomolgus monkey, plasma, iv, 4 h) was 11.8 ng/mL. The concentration at 6 h ([3]; cynomolgus monkey, plasma, iv, 6 h) was 3.21 ng/mL, the “Plasma concentration” value ([3]; 0 h) was “BLQ (BLQ Values less than LOQ (<0.5 ng/mL))” and the “Plasma concentration” value ([3]; 0.083 h) was 951 ng/mL and 914 ng/mL and 1166 ng/mL and 1024 ng/mL. For the same compound, the “Plasma concentration” value ([3]; 0.25 h) was 825 ng/mL and 848 ng/mL and 427 ng/mL and 672 ng/mL and the “Plasma concentration” value ([3]; 0.5 h) was 119.8 ng/mL and 576 ng/mL and 620 ng/mL and 609 ng/mL and 430 ng/mL.
